According to patent US20250059141A1, “TLR MODULATOR AND USE THEREOF” (DUALITY BIOLOGICS (SUZHOU) CO., LTD., priority 2021, published 2025):

These compounds were tested against T1, hTLR8 (human Toll-like receptor 8) (Homo sapiens, UniProt Q9NR97) (assay: HEK-Blue hTLR8 reporter assay (QUANTI-Blue, OD650)). Settings: HEK-Blue hTLR8 cells, 24 h; class symbols; read-out: Reporter assay TLR8 EC50.
T1 construct: host or cells: HEK-Blue hTLR8 (HEK293-derived reporter cells)
T1 sequence (Q9NR97 27-1041): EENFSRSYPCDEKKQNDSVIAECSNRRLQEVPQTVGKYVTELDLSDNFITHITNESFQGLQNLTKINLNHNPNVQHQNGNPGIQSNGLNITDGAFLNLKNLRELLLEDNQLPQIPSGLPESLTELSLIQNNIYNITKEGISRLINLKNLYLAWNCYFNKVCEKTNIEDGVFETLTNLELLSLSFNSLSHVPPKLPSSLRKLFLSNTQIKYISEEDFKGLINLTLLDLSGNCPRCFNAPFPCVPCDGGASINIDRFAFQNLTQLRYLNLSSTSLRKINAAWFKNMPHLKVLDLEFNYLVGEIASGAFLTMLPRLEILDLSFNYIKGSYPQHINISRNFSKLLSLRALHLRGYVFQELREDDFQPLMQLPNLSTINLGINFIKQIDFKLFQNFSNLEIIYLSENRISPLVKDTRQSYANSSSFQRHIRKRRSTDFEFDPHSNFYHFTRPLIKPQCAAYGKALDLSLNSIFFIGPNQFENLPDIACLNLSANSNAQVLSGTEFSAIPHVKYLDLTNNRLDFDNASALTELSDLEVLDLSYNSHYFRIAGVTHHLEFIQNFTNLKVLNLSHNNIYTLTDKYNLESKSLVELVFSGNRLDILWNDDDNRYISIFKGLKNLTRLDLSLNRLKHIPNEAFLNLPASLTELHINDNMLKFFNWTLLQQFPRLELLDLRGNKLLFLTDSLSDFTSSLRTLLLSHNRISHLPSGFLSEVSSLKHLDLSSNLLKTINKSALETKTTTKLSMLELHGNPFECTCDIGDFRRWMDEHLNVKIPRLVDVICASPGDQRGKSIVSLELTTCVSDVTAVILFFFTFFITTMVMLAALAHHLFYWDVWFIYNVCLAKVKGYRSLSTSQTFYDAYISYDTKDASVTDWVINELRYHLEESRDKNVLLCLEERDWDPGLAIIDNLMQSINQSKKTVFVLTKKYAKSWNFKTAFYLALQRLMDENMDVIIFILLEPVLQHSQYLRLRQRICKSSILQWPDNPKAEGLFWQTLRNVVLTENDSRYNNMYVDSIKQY
Format: cell-based
Procedure: In this example, the agonistic activity of the compounds of the present application on hTLR7 (human Toll-like receptor 7) and hTLR8 (human Toll-like receptor 8) was assessed; the induction activity of the compounds on human PBMCs for TNF-α and IFN-α production was assessed in human PBMCs (human peripheral blood mononuclear cells).
All compounds were formulated in DMSO into 30 mM stock solutions and preserved at 4° C. The reference compound ([…], Cat. No. tlrl-r848-5) was purchased from InvivoGen and formulated into a 5 mg/mL stock solution in DMSO and preserved in a freezer at −20° C. HEK-Blue hTLR7 and HEK-Blue hTLR8 cell lines were purchased from InvivoGen, and human PBMCs were purchased from Shanghai Saily Biotechnology Co., Ltd. (Cat. No. XFB—HP100B).
The major instruments used in this study were multifunctional microplate reader Flexstation III (Molecular Device), Envision (Perkin Elmer), M2e (Molecular Device), and Echo555 (Labcyte). 2.1 Agonistic activity of compounds on hTLR7 (human Toll-like receptor 7) and hTLR8 (human Toll-like receptor 8)
Compound dilution: The compounds of the present application are diluted in DMSO, for example, to about 15 mM. The reference compound was added to the plates in sequence after dilution. The compounds were serially 3-fold diluted to 10 concentrations and added to 96-well plates in duplicate.
For the negative control wells, DMSO was added at 0.2 μL/well, and the reference compound was added to the positive control wells. The final concentration of DMSO was 0.2%.
Cell plating: When an 80% confluence of HEK Blue hTLR7&8 cells in the culture flask was observed under a microscope, the culture medium was discarded, 10 mL of detection medium was added, and the cells were separated by pipetting. The cells were counted on a cytometer and diluted to 500,000 cells/mL. The cells were plated at 100 μL/50,000 cells/well in the 96-well plates containing the compounds. The compounds and cells were co-incubated at 37° C. in a 5% CO2 incubator for 24 hours.
Compound activity detection: 20 μL of cell supernatant was taken from each well and added to a plate containing QUANTI-Blue™ reagent at 180 μL/well. The plate was incubated at 37° C. for 1 hour, and the absorbance at 650 nm (OD650) was measured on the multifunctional microplate reader Flexstation III.
Compound activity data analysis: The OD650 values were analyzed by GraphPad Prism software and fitted to give dose-response curves of the compounds. The EC50 values of compounds were calculated.

Row | EC50 | SMILES
1 | 10 to 100 nM | CCCN(OCc1ccc(N)cc1)C(=O)C1=Cc2ccc(-c3cncc(C(=O)O)c3)cc2N=C(N)C1 [Compound 32]
2 | 10 to 100 nM | CCCN(OCc1ccc(N)cc1)C(=O)C1=Cc2ccc(C(=O)N3CC(CO)C3)cc2N=C(N)C1 [Compound 37]
3 | 10 to 100 nM | CCCN(OCc1ccc(N)cc1)C(=O)C1=Cc2ccc(-c3ccc(C(=O)N4CC[C@@H](O)C4)cc3)cc2N=C(N)C1 [Compound 42]
4 | 10 to 100 nM | CCCN(OCc1ccc(N)cc1)C(=O)C1=Cc2ccc(C(=O)N3CCC(O)C3)cc2N=C(N)C1 (centres unmarked) [Compound 46]
5 | 10 to 100 nM | CCCN(OCc1ccc(N)cc1)C(=O)C1=Cc2ccc(C(=O)N3CCOC(CO)C3)cc2N=C(N)C1 (centres unmarked) [Compound 47]
6 | 10 to 100 nM | CCCN(OCc1ccc(N)cc1)C(=O)C1=Cc2ccc(C(=O)NCCO)cc2N=C(N)C1 [Compound 48]
7 | 10 to 100 nM | CCCN(OCc1ccc(N)cc1)C(=O)C1=Cc2ccc(-c3cncc(C(F)(F)F)c3)cc2N=C(N)C1 [Compound 53]
8 | ≤ 10 nM | NC1=Nc2cc(-c3cncc(CO)c3)ccc2C=C(C(=O)N(CCC(F)(F)F)OCc2ccc(N)cc2)C1 [Compound 58]
9 | ≤ 10 nM | CCCN(OCc1ccc(N)cc1Cl)C(=O)C1=Cc2ncc(-c3cncc(CO)c3)cc2N=C(N)C1 [Compound 59]
10 | ≤ 10 nM | CCCN(OCc1ccc(N)cc1OC)C(=O)C1=Cc2ncc(-c3cncc(CO)c3)cc2N=C(N)C1 [Compound 60]
11 | ≤ 10 nM | CCCN(OCc1ccc(N)cc1)C(=O)C1=Cc2ncc(-c3cncc(CO)c3)cc2N=C(N)C1 [Compound 61]
12 | ≤ 10 nM | CCCN(OCc1ccc(N)cc1)C(=O)C1=Cc2ccc(-c3cncc(CO)c3)nc2N=C(N)C1 [Compound 62]
13 | ≤ 10 nM | CCCN(OCc1ccc(N)cc1)C(=O)C1=Cc2ccc(-c3cnc4c(c3)C(=O)OC4)nc2N=C(N)C1 [Compound 63]
14 | ≤ 10 nM | CCCN(OCc1ccc(N)cc1)C(=O)C1=Cc2ccc(-c3cccc(S(=O)(=O)NCCO)c3)cc2N=C(N)C1 [Compound 64]
15 | ≤ 10 nM | CCCN(OCc1ccc(N)cc1)C(=O)C1=Cc2ccc(-c3cccc(S(=O)(=O)N4CCC(O)CC4)c3)cc2N=C(N)C1 [Compound 66]
16 | ≤ 10 nM | CCCN(OCc1ccc(N)cc1)C(=O)C1=Cc2ccc(-c3cccc(S(=O)(=O)N4CCNCC4)c3)cc2N=C(N)C1 [Compound 67]
17 | ≤ 10 nM | CCCN(OCc1ccc(N)cc1)C(=O)C1=Cc2ccc(-c3cccc(S(=O)(=O)N4CCOCC4)c3)cc2N=C(N)C1 [Compound 68]

Row | EC50 | SMILES
18 | ≤ 10 nM | CCCN(OCc1ccc(N)cc1)C(=O)C1=Cc2ccc(-c3cncc(S(=O)(=O)N4CCNCC4)c3)cc2N=C(N)C1 [Compound 69]
19 | ≤ 10 nM | CCCN(OCc1ccc(N)cc1)C(=O)C1=Cc2ccc(-c3cncc(S(=O)(=O)NCCO)c3)cc2N=C(N)C1 [Compound 70]
20 | ≤ 10 nM | CCCN(OCc1ccc(N)cc1)C(=O)C1=Cc2ccc(-c3cncc(S(=O)(=O)N4CCC(O)CC4)c3)cc2N=C(N)C1 [Compound 71]
21 | ≤ 10 nM | CCCN(OCc1ccc(N)cc1)C(=O)C1=Cc2ccc(-c3cncc(S(=O)(=O)N4CC[C@H](O)C4)c3)cc2N=C(N)C1 [Compound 72]
22 | ≤ 10 nM | CCCN(OCc1ccc(N)cc1)C(=O)C1=Cc2ccc(-c3cncc([S+](C)[O-])c3)cc2N=C(N)C1 (centres unmarked) [Compound 73]
23 | ≤ 10 nM | CCCN(OCc1ccc(N)cc1)C(=O)C1=Cc2ccc(C(=O)NC(C)(C)c3ccccc3)cc2N=C(N)C1 [Compound 76]
24 | ≤ 10 nM | CCCN(OCc1ccc(N)cc1)C(=O)C1=Cc2ccc(C(=O)N[C@@H](C)c3ccccc3)cc2N=C(N)C1 [Compound 77]
25 | ≤ 10 nM | CCCN(OCc1ccc(N)cc1)C(=O)C1=Cc2ccc(C(=O)N[C@H]3C[C@@H]3c3ccccc3)cc2N=C(N)C1 [Compound 78]
26 | 10 to 100 nM | CCCN(OCc1ccc(N)cc1)C(=O)C1=Cc2ccc(C(=O)NC3COC3)cc2N=C(N)C1 [Compound 81]
27 | ≤ 10 nM | CCCN(OCc1ccc(N)cc1)C(=O)C1=Cc2ccc(C(=O)NC3CCCCC3)cc2N=C(N)C1 [Compound 82]
28 | 10 to 100 nM | CCCN(OCc1ccc(N)cc1)C(=O)C1=Cc2ccc(C(=O)NC3CCOCC3)cc2N=C(N)C1 [Compound 84]
29 | ≤ 10 nM | CCCN(OCc1ccc(N)cc1)C(=O)C1=Cc2ccc(C(=O)Nc3cncc(OC)c3)cc2N=C(N)C1 [Compound 85]
30 | ≤ 10 nM | CCCN(OCc1ccc(N)cc1)C(=O)C1=Cc2ccc(C(=O)Nc3cccc(CN)c3)cc2N=C(N)C1 [Compound 86]
31 | ≤ 10 nM | CCCN(OCc1ccc(N)cc1)C(=O)C1=Cc2ccc(C(=O)Nc3ncco3)cc2N=C(N)C1 [Compound 87]
32 | ≤ 10 nM | CCCN(OCc1ccc(N)cc1)C(=O)C1=Cc2ccc(C(=O)Nc3ccn(C)n3)cc2N=C(N)C1 [Compound 88]
33 | 10 to 100 nM | CCCN(OCc1ccc(N)cc1)C(=O)C1=Cc2ccc(C(=O)Nc3ccc4cn[nH]c4c3)cc2N=C(N)C1 [Compound 89]

Same assay, conditions: HEK-Blue hTLR8 cells, 24 h; read-out: Reporter assay TLR8 EC50

Row | EC50 | SMILES
34 | < 1.5 nM | CCCN(OCc1ccc(N)cc1)C(=O)C1=Cc2ccc(-c3cncc(CO)c3)cc2N=C(N)C1 [Compound 15]
35 | < 1.5 nM | CCCN(OCc1ccc(N)cc1)C(=O)C1=Cc2ccc(-c3cccc(S(N)(=O)=O)c3)cc2N=C(N)C1 [Compound 35]
36 | 1.71 nM | CCCN(OCc1ccc(N)cc1)C(=O)C1=Cc2ccc(-c3cncc(S(N)(=O)=O)c3)cc2N=C(N)C1 [Compound 36]
37 | 2.5 nM | CCCN(OCc1ccc(N)cc1)C(=O)C1=Cc2ccc(C(=O)Nc3cccnc3)cc2N=C(N)C1 [Compound 40]
38 | 5.37 nM | CCCN(OCc1ccc(N)cc1)C(=O)C1=Cc2ccc(-c3cccc(S(=O)(=O)N4CC(O)C4)c3)cc2N=C(N)C1 [Compound 41]
39 | < 1.5 nM | CCCN(OCc1ccc(N)cc1)C(=O)C1=Cc2ccc(-c3ccc4c(c3)C(=O)OC4)cc2N=C(N)C1 [Compound 43]
40 | 2.3 nM | NC1=Nc2cc(-c3cncc(CO)c3)ccc2C=C(C(=O)N(CC2CC2)OCc2ccc(N)cc2)C1 [Compound 45]
41 | 6.6 nM | CCCN(OCc1ccc(N)cc1)C(=O)C1=Cc2ccc(-c3cncc(Cl)c3)cc2N=C(N)C1 [Compound 49]
42 | 1.5 nM | CCCN(OCc1ccc(N)cc1)C(=O)C1=Cc2ccc(-c3cncc(C#N)c3)cc2N=C(N)C1 [Compound 50]
43 | 5.6 nM | CCCN(OCc1ccc(N)cc1)C(=O)C1=Cc2ccc(-c3ccc(C#N)nc3)cc2N=C(N)C1 [Compound 51]
44 | 4.4 nM | CCCN(OCc1ccc(N)cc1)C(=O)C1=Cc2ccc(-c3cncc(N)c3)cc2N=C(N)C1 [Compound 52]
45 | < 1.5 nM | CCCN(OCc1ccc(N)cc1)C(=O)C1=Cc2ccc(-c3cncc(CN)c3)cc2N=C(N)C1 [Compound 54]
46 | 2.3 nM | CCCN(OCc1ccc(N)cc1)C(=O)C1=Cc2ccc(-c3ccc(N4CCOCC4)nc3)cc2N=C(N)C1 [Compound 55]
47 | < 1.5 nM | CCCN(OCc1ccc(N)cc1)C(=O)C1=Cc2ccc(-c3cncc(S(C)(=O)=O)c3)cc2N=C(N)C1 [Compound 56]
